Source: patent US20080207710A1, “Insulin Secretagogue Drugs” (TOUDAI TLO, LTD., priority 2004, published 2008)

Tests used:
[1] = tested on: pancreatic β cells (islets of Langerhans); assay: Glucose-stimulated insulin secretion from isolated islets of Langerhans; assay type: cell-based, mouse; conditions: for insulin secretion on stimulation with glucose: 24 hr with 10 or 100 nM GW501516, 16.7 mM glucose, 1 hr
Protocol: Animals, 6-week-old male C57BL/6J and Lepr^db/Lepr^db mice, were purchased from Clea Japan, Inc., and kept under the following conditions: room temperature, 25° C.; humidity, 60±10%; and 12 hr light/dark cycles (light period, 08:00 to 20:00). All animals were tamed for one week and then subjected to tests. The animals were given free access to food (commercial lab chow, pellet form CE-2, Clea Japan, Inc.) and water. Male C57BL/6J and Lepr^db/Lepr^db mice were used. After clamping the common bile duct at a point close to the duodenum outlet under Nembutal anesthetization, 1 mg/mL collagenase (Wako Pure Chemical Industries, Ltd., Japan) was injected into the common bile duct at a liver side. The pancreas was taken out and incubated at 37° C. for 13 min. Thereafter, Hank's balanced salt solution was added, the pancreas tissue suspension was shaken and then centrifuged to remove supernatants. The pancreas tissue was resuspended in Hank's balanced salt solution, and then subjected to filtration followed by addition of Hank's balanced salt solution to make the tissue suspension volume 35 mL. The resultant tissue suspension was mixed and then allowed to stand for 5 min. Supernatants were removed with an aspirator except that 5 mL of the solution was retained, and the remaining solution was remixed with Hank's balanced salt solution to make the tissue suspension volume 35 mL. […] After incubation in a Krebs-Ringer bicarbonate buffer (KRBB, 119 mM NaCl, 4.74 mM KCl, 2.54 mM CaCl2, 1.19 mM MgCl2, 1.19 mM KH2PO4, 25 mM NaHCO3, and 10 mM HEPES, pH 7.4) containing 2.8 mM glucose at 37° C. for 1 hr, the islets of Langerhans were dispensed in a 24-well plate at 10 islets per well, and incubated in KRBB containing 2.8, 5.6 or 16.7 mM glucose, respectively, at 37° C. for 1 hr. Each supernatant sample collected was assayed for insulin with rat insulin [^125I] Biotrak Assay System (Amersham).

obese animals = conditions: cited from earlier work

For `Cc1cc(SCc2sc(-c3ccc(C(F)(F)F)cc3)nc2C)ccc1OCC(=O)O` [GW501516, 2-{2-methyl-4-[({4-methyl-2-[4-(trifluoromethyl)phenyl]-1,3-thiazol-5-yl}methyl)thio]phenoxy}acetic acid], the “dose dependence of insulin secretion when stimulated with elevated glucose levels” value ([1]; 10 or 100 nM GW501516, elevated glucose levels) was “increased dose-dependently insulin secretion”, the “insulin secretion on stimulation with glucose” value ([1]; islets from C57BL/6J mice) was “significant insulin secretion” and the “insulin secretion on stimulation with glucose” value ([1]; islets from Lepr^db/Lepr^db mice) was “significant insulin secretion”. For the same compound, the “effect on diabetes (plasma glucose and blood insulin levels)” value (obese animals; genetically obese animals) was “improve diabetes as revealed by the decrease in plasma glucose and blood insulin levels” and the “effect on obesity and insulin resistance” value (obese animals; obese animals induced by high-fat dieting) was “ameliorate obesity and insulin resistance”.
